Patent US10760110B2, “Antibiotic testing and screening system” (priority 2017, dated 2020)
Read-outs that look alike come from different tables or passages of the source.

Tested on: K. pneumoniae NVT1001 strains with ESBL or AmpC β-lactamase plasmids
Assay: Etest MIC of β-lactams, OmpK35/36 loss, ΔramR and/or extended-spectrum β-lactamase and AmpC β-lactamase (Table 8)
Format: cell-based, Klebsiella pneumoniae
Conditions: for MIC: Klebsiella pneumoniae
Procedure: DNA fragments of the resistance genes along with their flanking regions were amplified from clinical plasmids via PCR with specific primer pairs. The resulting PCR fragments were digested and then cloned into the plasmid pACYC177 or pACYC184. The resulting plasmids were then transformed into K. pneumoniae strain NVT1001 via electroporation. The recombinant bacteria were plated onto LB agar plates containing kanamycin (50 mg/L) or chloramphenicol (50 mg/L), and the presence of the cloned gene was confirmed via PCR and DNA sequencing.
The MICs of antibiotics were determined using the Etest (Biodisk AB, Sweden) according to the manufacturer's instructions. The MICs from the Etest, which fall between standard two-fold dilutions, were rounded up to the next highest two-fold value. The MICs of ceftazidime and cefotaxime against K. pneumoniae NVT1001 harbouring the pACYC177 plasmid with blaOXA-48 were further determined using a broth microdilution test according to the recommendations of the CLSI,^25 and the results were interpreted according to the breakpoints established by the CLSI in 2017.^25 Meanwhile, due to the lack of CLSI breakpoints in 2016 and 2017, the results for cephalothin were interpreted according to the breakpoints established by the CLSI in 2015,^26 and the results for moxifloxacin were interpreted according to the breakpoints established by the EUCAST in 2017.^27

[1] = CMY-2 on pACYC177, WT (NVT1001), read-out: MIC
[2] = CMY-2 on pACYC177, Δ35 (ΔompK35 mutant)
[3] = CMY-2 on pACYC177, Δ35/36 (ΔompK35/36 mutant)
[4] = CMY-2 on pACYC177, Δ36 (ΔompK36 mutant)
[5] = CMY-2 on pACYC177, ΔramR mutant
[6] = CMY-2 on pACYC177, ΔramRΔ35 (ΔramRΔompK35 mutant)
[7] = CMY-2 on pACYC177, ΔramRΔ35/36 (ΔramRΔompK35/36 mutant)
[8] = CMY-2 on pACYC177, ΔramRΔ36 (ΔramRΔompK36 mutant)
[9] = CTX-M-14 on pACYC177, WT (NVT1001), read-out: MIC
[10] = CTX-M-14 on pACYC177, Δ35 (ΔompK35 mutant)
[11] = CTX-M-14 on pACYC177, Δ35/36 (ΔompK35/36 mutant)
[12] = CTX-M-14 on pACYC177, Δ36 (ΔompK36 mutant)
[13] = CTX-M-14 on pACYC177, ΔramR mutant
[14] = CTX-M-14 on pACYC177, ΔramRΔ35 (ΔramRΔompK35 mutant)
[15] = CTX-M-14 on pACYC177, ΔramRΔ35/36 (ΔramRΔompK35/36 mutant)
[16] = CTX-M-14 on pACYC177, ΔramRΔ36 (ΔramRΔompK36 mutant)
[17] = CTX-M-15 on pACYC177, WT (NVT1001), read-out: MIC
[18] = CTX-M-15 on pACYC177, Δ35 (ΔompK35 mutant)
[19] = CTX-M-15 on pACYC177, Δ35/36 (ΔompK35/36 mutant)
[20] = CTX-M-15 on pACYC177, Δ36 (ΔompK36 mutant)
[21] = CTX-M-15 on pACYC177, ΔramR mutant
[22] = CTX-M-15 on pACYC177, ΔramRΔ35 (ΔramRΔompK35 mutant)
[23] = CTX-M-15 on pACYC177, ΔramRΔ35/36 (ΔramRΔompK35/36 mutant)
[24] = CTX-M-15 on pACYC177, ΔramRΔ36 (ΔramRΔompK36 mutant)
[25] = DHA-1-AmpR on pACYC177, WT (NVT1001), read-out: MIC
[26] = DHA-1-AmpR on pACYC177, Δ35 (ΔompK35 mutant)
[27] = DHA-1-AmpR on pACYC177, Δ35/36 (ΔompK35/36 mutant)
[28] = DHA-1-AmpR on pACYC177, Δ36 (ΔompK36 mutant)
[29] = DHA-1-AmpR on pACYC177, ΔramR mutant
[30] = DHA-1-AmpR on pACYC177, ΔramRΔ35 (ΔramRΔompK35 mutant)
[31] = DHA-1-AmpR on pACYC177, ΔramRΔ35/36 (ΔramRΔompK35/36 mutant)
[32] = DHA-1-AmpR on pACYC177, ΔramRΔ36 (ΔramRΔompK36 mutant)
[33] = SHV-12 on pACYC177, WT (NVT1001), read-out: MIC
[34] = SHV-12 on pACYC177, Δ35 (ΔompK35 mutant)
[35] = SHV-12 on pACYC177, Δ35/36 (ΔompK35/36 mutant)
[36] = SHV-12 on pACYC177, Δ36 (ΔompK36 mutant)
[37] = SHV-12 on pACYC177, ΔramR mutant
[38] = SHV-12 on pACYC177, ΔramRΔ35 (ΔramRΔompK35 mutant)
[39] = SHV-12 on pACYC177, ΔramRΔ35/36 (ΔramRΔompK35/36 mutant)
[40] = SHV-12 on pACYC177, ΔramRΔ36 (ΔramRΔompK36 mutant)
[41] = no supplemental plasmid, WT (NVT1001), read-out: MIC
[42] = no supplemental plasmid, Δ35 (ΔompK35 mutant)
[43] = no supplemental plasmid, Δ35/36 (ΔompK35/36 mutant)
[44] = no supplemental plasmid, Δ36 (ΔompK36 mutant)
[45] = no supplemental plasmid, ΔramR mutant
[46] = no supplemental plasmid, ΔramRΔ35 (ΔramRΔompK35 mutant)
[47] = no supplemental plasmid, ΔramRΔ35/36 (ΔramRΔompK35/36 mutant)
[48] = no supplemental plasmid, ΔramRΔ36 (ΔramRΔompK36 mutant)

## C[C@@H](O)[C@H]1C(=O)N2C(C(=O)O)=C(S[C@@H]3CN[C@H](CNS(N)(=O)=O)C3)[C@H](C)[C@H]12 [Doripenem]
[1]
  MIC: 0.25 µg/mL
[2]
  MIC: 0.25 µg/mL
[3]
  MIC: 8 µg/mL
[4]
  MIC: 1 µg/mL
[5]
  MIC: 0.125 µg/mL
[6]
  MIC: 0.125 µg/mL
[7]
  MIC: 4 µg/mL
[8]
  MIC: 4 µg/mL
[9]
  MIC: 0.125 µg/mL
[10]
  MIC: 0.125 µg/mL
[11]
  MIC: 1 µg/mL
[12]
  MIC: 0.125 µg/mL
[13]
  MIC: 0.06 µg/mL
[14]
  MIC: 0.06 µg/mL
[15]
  MIC: 0.5 µg/mL
[16]
  MIC: 0.5 µg/mL
[17]
  MIC: 0.125 µg/mL
[18]
  MIC: 0.125 µg/mL
[19]
  MIC: 4 µg/mL
[20]
  MIC: 0.25 µg/mL
[21]
  MIC: 0.125 µg/mL
[22]
  MIC: 0.125 µg/mL
[23]
  MIC: 2 µg/mL
[24]
  MIC: 2 µg/mL
[25]
  MIC: 0.125 µg/mL
[26]
  MIC: 0.125 µg/mL
[27]
  MIC: 8 µg/mL
[28]
  MIC: 0.25 µg/mL
[29]
  MIC: 0.125 µg/mL
[30]
  MIC: 0.125 µg/mL
[31]
  MIC: 4 µg/mL
[32]
  MIC: 4 µg/mL
[33]
  MIC: 0.125 µg/mL
[34]
  MIC: 0.125 µg/mL
[35]
  MIC: 1 µg/mL
[36]
  MIC: 0.125 µg/mL
[37]
  MIC: 0.06 µg/mL
[38]
  MIC: 0.06 µg/mL
[39]
  MIC: 0.5 µg/mL
[40]
  MIC: 0.5 µg/mL
[41]
  MIC: 0.06 µg/mL
[42]
  MIC: 0.06 µg/mL
[43]
  MIC: 0.125 µg/mL
[44]
  MIC: 0.06 µg/mL
[45]
  MIC: 0.03 µg/mL
[46]
  MIC: 0.03 µg/mL
[47]
  MIC: 0.5 µg/mL
[48]
  MIC: 0.25 µg/mL
Production of ESBLs tested alone
  effects on the MIC: no significant (≥4-fold) effects
Strains with ΔramR, with or without ESBLs or AmpC β-lactamases
  effects on the MIC: no significant (≥4-fold) effects

## C[C@@H](O)[C@H]1C(=O)N2C(C(=O)O)=C(SCCN=CN)C[C@H]12 [Imipenem]
[1]
  MIC: 1 µg/mL
[2]
  MIC: 1 µg/mL
[3]
  MIC: > 32 µg/mL
[4]
  MIC: 4 µg/mL
[5]
  MIC: 1 µg/mL
[6]
  MIC: 1 µg/mL
[7]
  MIC: 32 µg/mL
[8]
  MIC: 32 µg/mL
[9]
  MIC: 0.5 µg/mL
[10]
  MIC: 0.5 µg/mL
[11]
  MIC: 1 µg/mL
[12]
  MIC: 0.5 µg/mL
[13]
  MIC: 0.25 µg/mL
[14]
  MIC: 0.25 µg/mL
[15]
  MIC: 0.5 µg/mL
[16]
  MIC: 0.5 µg/mL
[17]
  MIC: 0.5 µg/mL
[18]
  MIC: 0.5 µg/mL
[19]
  MIC: 4 µg/mL
[20]
  MIC: 0.5 µg/mL
[21]
  MIC: 0.5 µg/mL
[22]
  MIC: 0.25 µg/mL
[23]
  MIC: 2 µg/mL
[24]
  MIC: 2 µg/mL
[25]
  MIC: 0.5 µg/mL
[26]
  MIC: 0.5 µg/mL
[27]
  MIC: 32 µg/mL
[28]
  MIC: 0.5 µg/mL
[29]
  MIC: 0.25 µg/mL
[30]
  MIC: 0.25 µg/mL
[31]
  MIC: 16 µg/mL
[32]
  MIC: 16 µg/mL
[33]
  MIC: 0.5 µg/mL
[34]
  MIC: 0.5 µg/mL
[35]
  MIC: 1 µg/mL
[36]
  MIC: 0.5 µg/mL
[37]
  MIC: 0.25 µg/mL
[38]
  MIC: 0.25 µg/mL
[39]
  MIC: 1 µg/mL
[40]
  MIC: 0.5 µg/mL
[41]
  MIC: 0.5 µg/mL
[42]
  MIC: 0.5 µg/mL
[43]
  MIC: 0.5 µg/mL
[44]
  MIC: 0.5 µg/mL
[45]
  MIC: 0.25 µg/mL
[46]
  MIC: 0.25 µg/mL
[47]
  MIC: 0.5 µg/mL
[48]
  MIC: 0.5 µg/mL
